Test results published in patent US9707267B2, “Beta-turn peptidomimetic cyclic compounds for treating dry eye” (Mimetogen Pharmaceuticals, Inc., priority 2008, dated 2017).

Legend:
[1] = test system: cultured rat conjunctival goblet cells; experiment: Goblet cell glycoconjugate secretion, ELLA with UEA-1 (Example 2); assay type: cell-based; conditions: 2 hours; for Glycoconjugate Secretion, Mean ± sem: mean of rats; for Glycoconjugate Secretion, Mean ± SD: mean of rats/plates
Procedure: The culturing of conjunctival goblet cells from explant cultures was as previously described in Shatos, M. et al., “Isolation, Characterization, and Propagation of Rat Conjunctival Goblet Cells In Vitro,” IOVS 42:1455-1464 (2001), the entire content of which is incorporated herein by reference. The tissue was finely minced and individual pieces were anchored onto scored 6-well cultures dishes in 0.5 mL of complete RPMI-1640 (supplemented with 10% FBS, 2 mM glutamine and 100 μg/mL penicillin-streptomycin) and incubated at 37° C. in a humidified 5% CO2-atmosphere. Explant cultures were refed every 2 days. Within a few days, goblet cells migrated from the pieces and began to proliferate. After approximately one week, the tissue plugs were removed and the goblet cells were allowed to grow to confluence. Cells were passaged once by trypsinization of adherent cells with 0.05% trypsin-0.53 mM EDTA (pH 7.4), and plated in 8-well Laboratory Tek chamber slides (histochemistry) or in 96 well (proliferation), 24 well (secretion), or 6 well (western blots) culture plates with complete RPMI-1640 media.
To measure cell secretion, goblet cells were grown to confluence and then serum depleted for 2 hours prior to stimulation. Cells were incubated with compound D3 at 2, 10, and 50 μM, NGF at 0.1, 1 and 10 nM, and PMA at 0.1, 1, and 10 nM in serum-free RPMI for 2 hours. Goblet cell secretion was measured using an enzyme-linked lectin assay (ELLA). Briefly, an aliquot of the cell culture supernatant was transferred to a 96-well polystyrene microtiter plate in triplicate (Corning Life Sciences #2592, Fisher Scientific, Nepean, Ont). A dilution series of bovine submaxillary mucin (BSM) (Sigma, St. Louis, Mo.) was included on each plate as the standard (standard curve data and data showing that detection of BSM is linear between 0.003 and 0.1 μg not shown). The plates were coated by evaporation at 37° C. overnight. After, the plates were washed three times with wash buffer [PBS containing 0.3% BSA, 0.05% Tween-20] then blocked for nonspecific binding with PBS containing 3% BSA and 0.05% Tween-20 at 37° C. for 1 hour. The wells were rinsed three times in wash buffer, and then incubated in 2 μg/mL biotinylated UEA-1 diluted in wash buffer (Vector Labs, Burlingame, Calif.) at 37° C. for 1 hour. The wells were rinsed three times in wash buffer, and then incubated in 1 μg/mL HRP-conjugated neutravidin diluted in wash buffer (Pierce, Rockford, Ill.) at 37° C. for 1 hour. After the wells were rinsed three times in wash buffer, the color development was performed with TMB (Promega, Madison, Wis.) and stopped with 0.5N Sulfuric acid. The absorbance was read at 450 nm on a Benchmark Plus (Biorad). The goblet cells remaining in the culture wells were either scraped in RIPA buffer [1% TritonX-100, 20 mM Tris-HCl pH 7.5, 150 mM NaCl, 1.5 mM MgCl2, 1% Na deoxycholate, 1 mM EGTA, 1 mM EDTA, 0.1% SDS, 10% glycerol, 1 mM Na vanadate, 10 mM Na fluoride, 10 mM Na pyrophosphate, complete mini EDTA-free protease inhibitors (Roche Applied Science, Indianapolis, Ind.)] or 1M Tris-buffer (pH 7.5), collected and sonicated. The amount of protein in the cell homogenate was analyzed using the Bradford protein assay kit using a dilution series of bovine serum albumin (BSA) as the standard (BioRad, Montreal, PQ). Glycoconjugate secretion was normalized to total protein in the homogenate. Data was then expressed as fold increase above basal. […]

[2] = Maximum solubility in topical dosing solution; assay type: physicochemical; conditions: buffered saline ~pH 7, isotonic; 25.0 mg per mL solution
Procedure: Compound D3 was prepared using a formulation designed by Mimetogen Pharmaceuticals, which is buffered saline ˜pH 7 (as determined by pH indicator strips, EMD Chemicals). Three topical dosing solutions were prepared as follows: • A topical dosing solution of 0.4% was prepared using 4.0 mg of compound dissolved in 845 μL, of sterile milliQ water. The solution was adjusted to ˜pH 7 with 6.5 μL of 1.0 N NaOH (VWR) using pH indicator strips and made isotonic (0.9% NaCl) by adding 148.5 μL of sterile 1.0 M NaCl. • A topical dosing solution of 1.0% was prepared using 10.0 mg of compound dissolved in 845 μL of sterile milliQ water. […] The solution was adjusted to ˜pH 7 with 20 μL of 1.0 N NaOH. The solution was made isotonic by adding 135 μL of sterile 1.0 M NaCl. All solutions were sonicated for 5 min. All compound D3 solutions were stored refrigerated (2-8° C.) for the duration of the study.

NCCCC[C@@H]1NC(=O)[C@H](CCC(=O)O)NC(=O)c2cc([N+](=O)[O-])ccc2OCCC(C(=O)NCC(=O)O)NC1=O (stereo partly drawn) [Compound D3]
Glycoconjugate Secretion ([1]; 2 μM, Rat 2): 1.25 Fold increase above basal | Glycoconjugate Secretion ([1]; 2 μM, Rat 2 Plate 1): 2.5 μg glycoconjugate/mg total protein | Glycoconjugate Secretion ([1]; 2 μM, Rat 3): 2.14 Fold increase above basal | Glycoconjugate Secretion ([1]; 2 μM, Rat 3 Plate 1): 10.5 μg glycoconjugate/mg total protein | Glycoconjugate Secretion ([1]; 2 μM, Rat 4): 1.09 Fold increase above basal | Glycoconjugate Secretion ([1]; 2 μM, Rat 4 Plate 1): 9.3 μg glycoconjugate/mg total protein | Glycoconjugate Secretion, Mean ± sem ([1]; 2 μM): 1.49±0.33 Fold increase above basal | Glycoconjugate Secretion, Mean ± SD ([1]; 2 μM): 7.4 ± 4.3 μg glycoconjugate/mg total protein | Glycoconjugate Secretion, Mean ± sem ([1]; 2 μM, listed as MIM-D3): 1.49 ± 0.33 Fold increase above basal | Glycoconjugate Secretion ([1]; 10 μM, Rat 2): 1.25 Fold increase above basal | Glycoconjugate Secretion ([1]; 10 μM, Rat 2 Plate 1): 2.5 μg glycoconjugate/mg total protein | Glycoconjugate Secretion ([1]; 10 μM, Rat 3): 1.04 Fold increase above basal | Glycoconjugate Secretion ([1]; 10 μM, Rat 3 Plate 1): 5.1 μg glycoconjugate/mg total protein | Glycoconjugate Secretion ([1]; 10 μM, Rat 4): 1.35 Fold increase above basal | Glycoconjugate Secretion ([1]; 10 μM, Rat 4 Plate 1): 11.6 μg glycoconjugate/mg total protein | Glycoconjugate Secretion, Mean ± sem ([1]; 10 μM): 1.21 ± 0.09 Fold increase above basal | Glycoconjugate Secretion, Mean ± SD ([1]; 10 μM): 6.4 ± 4.7 μg glycoconjugate/mg total protein | Glycoconjugate Secretion ([1]; 50 μM, Rat 1): 1.38 Fold increase above basal | Glycoconjugate Secretion ([1]; 50 μM, Rat 1 Plate 2): 5.4 μg glycoconjugate/mg total protein | Glycoconjugate Secretion ([1]; 50 μM, Rat 2): 1.65 Fold increase above basal | Glycoconjugate Secretion ([1]; 50 μM, Rat 2 Plate 1): 3.3 μg glycoconjugate/mg total protein | Glycoconjugate Secretion ([1]; 50 μM, Rat 3): 1.16 Fold increase above basal | Glycoconjugate Secretion ([1]; 50 μM, Rat 3 Plate 1): 5.7 μg glycoconjugate/mg total protein | Glycoconjugate Secretion ([1]; 50 μM, Rat 4): 1.11 Fold increase above basal | Glycoconjugate Secretion ([1]; 50 μM, Rat 4 Plate 1): 9.5 μg glycoconjugate/mg total protein | Glycoconjugate Secretion, Mean ± sem ([1]; 50 μM): 1.33 ± 0.12 Fold increase above basal | Glycoconjugate Secretion, Mean ± SD ([1]; 50 μM): 6.0 ± 2.6 μg glycoconjugate/mg total protein | maximum solubility [2]: 2.5%

NGF: nerve growth factor (recombinant human), positive control
Glycoconjugate Secretion ([1]; 0.1 nM, Rat 1): 1.49 Fold increase above basal | Glycoconjugate Secretion ([1]; 0.1 nM, Rat 1 Plate 1): 7.6 μg glycoconjugate/mg total protein | Glycoconjugate Secretion ([1]; 0.1 nM, Rat 2): 1.20 Fold increase above basal | Glycoconjugate Secretion ([1]; 0.1 nM, Rat 2 Plate 1): 2.4 μg glycoconjugate/mg total protein | Glycoconjugate Secretion ([1]; 0.1 nM, Rat 3): 0.94 Fold increase above basal | Glycoconjugate Secretion ([1]; 0.1 nM, Rat 3 Plate 1): 4.6 μg glycoconjugate/mg total protein | Glycoconjugate Secretion ([1]; 0.1 nM, Rat 4): 1.24 Fold increase above basal | Glycoconjugate Secretion ([1]; 0.1 nM, Rat 4 Plate 1): 10.6 μg glycoconjugate/mg total protein | Glycoconjugate Secretion, Mean ± sem ([1]; 0.1 nM): 1.22 ± 0.11 Fold increase above basal | Glycoconjugate Secretion, Mean ± SD ([1]; 0.1 nM): 6.3 ± 3.6 μg glycoconjugate/mg total protein | Glycoconjugate Secretion ([1]; 1 nM, Rat 1): 2.67 Fold increase above basal | Glycoconjugate Secretion ([1]; 1 nM, Rat 1 Plate 1): 13.6 μg glycoconjugate/mg total protein | Glycoconjugate Secretion ([1]; 1 nM, Rat 2): 0.85 Fold increase above basal | Glycoconjugate Secretion ([1]; 1 nM, Rat 2 Plate 1): 1.7 μg glycoconjugate/mg total protein | Glycoconjugate Secretion ([1]; 1 nM, Rat 3): 1.00 Fold increase above basal | Glycoconjugate Secretion ([1]; 1 nM, Rat 3 Plate 1): 4.9 μg glycoconjugate/mg total protein | Glycoconjugate Secretion ([1]; 1 nM, Rat 4): 1.26 Fold increase above basal | Glycoconjugate Secretion ([1]; 1 nM, Rat 4 Plate 1): 10.8 μg glycoconjugate/mg total protein | Glycoconjugate Secretion, Mean ± sem ([1]; 1 nM): 1.44 ± 0.42 Fold increase above basal | Glycoconjugate Secretion, Mean ± SD ([1]; 1 nM): 7.8 ± 5.4 μg glycoconjugate/mg total protein | Glycoconjugate Secretion ([1]; 10 nM, Rat 1): 1.58 Fold increase above basal | Glycoconjugate Secretion ([1]; 10 nM, Rat 1 Plate 1): 10.4 μg glycoconjugate/mg total protein | Glycoconjugate Secretion ([1]; 10 nM, Rat 1 Plate 2): 4.4 μg glycoconjugate/mg total protein | Glycoconjugate Secretion ([1]; 10 nM, Rat 2): 1.49 Fold increase above basal | Glycoconjugate Secretion ([1]; 10 nM, Rat 2 Plate 1): 3.6 μg glycoconjugate/mg total protein | Glycoconjugate Secretion ([1]; 10 nM, Rat 2 Plate 2): 2.7 μg glycoconjugate/mg total protein | Glycoconjugate Secretion ([1]; 10 nM, Rat 3): 1.98 Fold increase above basal | Glycoconjugate Secretion ([1]; 10 nM, Rat 3 Plate 1): 9.7 μg glycoconjugate/mg total protein | Glycoconjugate Secretion ([1]; 10 nM, Rat 4): 1.19 Fold increase above basal | Glycoconjugate Secretion ([1]; 10 nM, Rat 4 Plate 1): 10.2 μg glycoconjugate/mg total protein | Glycoconjugate Secretion, Mean ± sem ([1]; 10 nM): 1.55±0.18 Fold increase above basal | Glycoconjugate Secretion, Mean ± SD ([1]; 10 nM): 6.8 ± 3.6 μg glycoconjugate/mg total protein
